{
  "source": "paper PMC6769468",
  "about": "“Endogenous Neuropeptide Nocistatin Is a Direct Agonist of Acid-Sensing Ion Channels (ASIC1, ASIC2 and ASIC3)” (Biomolecules, 2019)",
  "key": {"uninjected oocytes": {"tested_on": "uninjected oocytes", "experiment": "Application to uninjected oocytes (negative control)", "format": "cell-based, Xenopus laevis", "details": "1 mM rNS", "procedure": "Oocytes expressed rASIC1a, rASIC1b, rASIC2a, and rASIC3 homomeric channels were prepared as described. Injected oocytes were kept for two–three days at 19 °C and then for up to seven days at 15 °C in ND-96 medium supplemented with gentamycin (50 μg·mL^−1) and containing (in mM): 96 NaCl, 2 KCl, 1.8 CaCl2, 1 MgCl2, and 10 HEPES titrated to pH 7.4 with NaOH. Electrophysiological recordings were performed using the GeneClamp500 amplifier (Axon Instruments, Inverurie, UK) at a holding potential of -50 mV. The data were filtered at 20 Hz and digitized at 100 Hz using the L780 AD converter (L-Card, Moscow, Russia). Microelectrodes were filled with 3 M KCl. The external bath solution was ND-96 with pH adjusted to 7.4/7.8 (10 mM HEPES) /8.5 (10 mM Tris). Nocistatin containing solutions were freshly prepared and buffered each experimental day in ND-96 bath solution (pH 7.4/7.8/8.5). Proton-activated currents through ASIC channels were elicited by application of ND-96, in which 10 mM of HEPES was substituted with 10 mM MES at pH 5.5/ 10 mM acetic acid at pH 4.5. The whole-cell recording was performed if a response to the control pH stimulus was stable in at least two replicates. Nocistatin-activated currents were elicited by application of nocistatin containing solutions with various concentrations of the peptide. […]"}, "rat ASIC1b": {"molecular_target": "T1, rat ASIC1b (Rattus norvegicus, UniProt P55926)", "T1 construct": "expressed in transfected cells; host or cells: Xenopus laevis oocytes (injected)", "T1 sequence (P55926 1-559 isoform P55926-3)": "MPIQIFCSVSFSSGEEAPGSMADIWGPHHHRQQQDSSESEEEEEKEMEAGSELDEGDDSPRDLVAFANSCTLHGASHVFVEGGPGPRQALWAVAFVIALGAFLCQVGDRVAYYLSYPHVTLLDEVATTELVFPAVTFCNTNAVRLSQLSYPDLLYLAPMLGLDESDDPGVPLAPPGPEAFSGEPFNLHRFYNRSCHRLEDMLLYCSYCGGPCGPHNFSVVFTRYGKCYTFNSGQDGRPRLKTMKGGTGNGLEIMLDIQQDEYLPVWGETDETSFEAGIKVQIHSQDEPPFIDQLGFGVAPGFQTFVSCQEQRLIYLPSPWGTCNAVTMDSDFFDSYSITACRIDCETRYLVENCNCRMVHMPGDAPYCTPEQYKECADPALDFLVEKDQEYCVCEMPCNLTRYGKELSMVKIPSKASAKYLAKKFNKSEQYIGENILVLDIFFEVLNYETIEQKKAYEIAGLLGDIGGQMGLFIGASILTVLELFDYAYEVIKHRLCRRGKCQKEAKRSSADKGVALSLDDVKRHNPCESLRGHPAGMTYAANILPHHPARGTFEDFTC", "experiment": "Whole-cell current activation, rat ASIC1b in X. laevis oocytes", "format": "cell-based", "procedure": "(§1) Oocytes expressed rASIC1a, rASIC1b, rASIC2a, and rASIC3 homomeric channels were prepared as described. Injected oocytes were kept for two–three days at 19 °C and then for up to seven days at 15 °C in ND-96 medium supplemented with gentamycin (50 μg·mL^−1) and containing (in mM): 96 NaCl, 2 KCl, 1.8 CaCl2, 1 MgCl2, and 10 HEPES titrated to pH 7.4 with NaOH. Electrophysiological recordings were performed using the GeneClamp500 amplifier (Axon Instruments, Inverurie, UK) at a holding potential of -50 mV. The data were filtered at 20 Hz and digitized at 100 Hz using the L780 AD converter (L-Card, Moscow, Russia). Microelectrodes were filled with 3 M KCl. The external bath solution was ND-96 with pH adjusted to 7.4/7.8 (10 mM HEPES) /8.5 (10 mM Tris). Nocistatin containing solutions were freshly prepared and buffered each experimental day in ND-96 bath solution (pH 7.4/7.8/8.5). Proton-activated currents through ASIC channels were elicited by application of ND-96, in which 10 mM of HEPES was substituted with 10 mM MES at pH 5.5/ 10 mM acetic acid at pH 4.5. The whole-cell recording was performed if a response to the control pH stimulus was stable in at least two replicates. Nocistatin-activated currents were elicited by application of nocistatin containing solutions with various concentrations of the peptide.\nExtracellular solutions were applied using a computer-controlled valve system with a flow rate of 1 mL/min. The oocyte chamber volume was 80 µL. The validity of the application system for studying ASIC channels expressed in oocytes was confirmed in experiments by application of a Cl-free solution (containing (in mM): 130 NMDG, 1 MgGluc2, 2 KGluc, 5 HEPES) (pH 7.4). Fast application of proton/peptide-activating solution was performed at a flow rate of 1 mL/sec (the change of the bath solution occurred within 100 ms), followed by PC controlled flow stopping (from 5 to 15 s).\n(d) The time course of curves’ decay was fitted using a mono-exponential equation: F4(x) = A1*e^(-x/τdes) + A0, where F4(x) is the current amplitude at the time point x, A1 is the maximal current amplitude, A0 is its steady-state value and τdes is the […].\n(§2) All data are presented as mean ± SEM. The significance of normalized data differences was determined with a non-parametric Kruskal-Wallis ANOVA test with the significance level * p < 0.05 and ** p < 0.01; ns, non-significant."}, "rat ASIC2a": {"molecular_target": "T2, rat ASIC2a (Rattus norvegicus, UniProt Q62962)", "T2 construct": "expressed in transfected cells; host or cells: Xenopus laevis oocytes (injected)", "T2 sequence (Q62962 1-512)": "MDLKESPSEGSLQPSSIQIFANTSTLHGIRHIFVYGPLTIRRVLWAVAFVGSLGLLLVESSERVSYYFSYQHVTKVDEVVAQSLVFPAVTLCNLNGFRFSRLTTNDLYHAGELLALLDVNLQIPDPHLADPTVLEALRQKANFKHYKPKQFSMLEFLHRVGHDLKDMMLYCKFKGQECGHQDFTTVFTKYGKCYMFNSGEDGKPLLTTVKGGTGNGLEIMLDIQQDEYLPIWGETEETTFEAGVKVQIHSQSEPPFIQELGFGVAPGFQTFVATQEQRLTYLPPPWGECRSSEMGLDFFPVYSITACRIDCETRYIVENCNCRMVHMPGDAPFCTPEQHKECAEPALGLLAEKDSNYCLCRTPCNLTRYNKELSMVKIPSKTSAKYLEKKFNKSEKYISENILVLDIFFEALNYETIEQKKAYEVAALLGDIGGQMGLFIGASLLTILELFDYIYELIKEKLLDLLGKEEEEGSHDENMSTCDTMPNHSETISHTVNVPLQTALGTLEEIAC", "experiment": "Whole-cell current activation, rat ASIC2a in X. laevis oocytes", "format": "cell-based", "procedure": "as §1\nExtracellular solutions were applied using a computer-controlled valve system with a flow rate of 1 mL/min. The oocyte chamber volume was 80 µL. The validity of the application system for studying ASIC channels expressed in oocytes was confirmed in experiments by application of a Cl-free solution (containing (in mM): 130 NMDG, 1 MgGluc2, 2 KGluc, 5 HEPES) (pH 7.4). […]\nas §2"}, "[1]": {"details": "1 mM rNS, conditioning pH 7.4, mean ± S.E. from 4–7 measurements"}},
  "note": "Ends that are not written are not given here.",
  "data": [
    {"sequence": "MPRVRSVVQARDAEPEADAEPVADEADEVEQKQLQ [rNS]", "values": [
      {"measurement": "Effect on uninjected oocytes", "setting": "uninjected oocytes", "value": "did not produce any effects on the uninjected oocytes"},
      {"measurement": "Acurrent, nocistatin versus protons", "setting": "rat ASIC1b; 1 mM rNS vs pH drop 7.4–5.5", "value": "did not differ between protons and nocistatin"},
      {"measurement": "Desensitization time, difference between stimuli", "setting": "rat ASIC1b; 1 mM rNS vs pH drop 7.4–5.5", "value": "No differences were observed in desensitization time"},
      {"measurement": "tmax, nocistatin versus protons", "setting": "rat ASIC1b; 1 mM rNS vs pH drop 7.4–5.5", "value": "no differences"},
      {"measurement": "τdes (desensitization time constant)", "setting": "rat ASIC1b; [1]", "value": "0.5 ± 0.06", "unit": "s"},
      {"measurement": "tmax less than for acidification by", "setting": "rat ASIC2a; 1 mM rNS vs acidification, faster", "value": "~ 37%"},
      {"measurement": "Maximal amplitude of peptide activation versus response to standard pH drop", "setting": "rat ASIC2a; 1 mM rNS vs pH drop 7.4 to 5.5", "value": "eight times higher"},
      {"measurement": "τdes (desensitization time constant)", "setting": "rat ASIC2a; [1]", "value": "2.22 ± 0.16", "unit": "s"}
    ]}
  ]
}
